Experimental data published in DBAASP.
Converted amounts (≈) assume the structure as drawn.

Assays:
Assay in all cases: ≥ marks a high value that may be exact or a test limit, other limits are often not marked, values filed in µg/mL are converted to µM
Enterobacter cloacae = system: Enterobacter cloacae
[1] = system: Pseudomonas aeruginosa PAO1
[2] = system: Escherichia coli ATCC 25922
Staphylococcus aureus = system: Staphylococcus aureus
Klebsiella aerogenes = system: Klebsiella aerogenes
[3] = system: Enterococcus faecalis ATCC 29212
Escherichia coli ML-35p = system: Escherichia coli ML-35p
Escherichia coli = system: Escherichia coli
Candida albicans = system: Candida albicans
[4] = system: Haemophilus influenzae ATCC 49766
[5] = system: Klebsiella pneumoniae ATCC 700603
[6] = system: Klebsiella pneumoniae ATCC 13883
[7] = system: Staphylococcus aureus ATCC 43300
[8] = system: Enterobacter cloacae ATCC 13047
[9] = system: Candida albicans ATCC 2002
[10] = system: Staphylococcus aureus ATCC 25923
Pseudomonas aeruginosa = system: Pseudomonas aeruginosa
[11] = system: Haemophilus influenzae ATCC 49247
[12] = system: Xanthomonas campestris pv. Vesicatoria 2133-2
[13] = system: Pseudomonas syringae pv. syringae EPS 94
[14] = system: Erwinia amylovora PMV 6076
Escherichia coli K-12 = system: Escherichia coli K-12
Escherichia coli DC2 = system: Escherichia coli DC2
[15] = system: Staphylococcus aureus UAMS-1
[16] = system: Staphylococcus aureus RF122
[17] = system: Staphylococcus aureus Newman
[18] = system: Pseudomonas fluorescens NCIMB 9046
[19] = system: Staphylococcus aureus NCTC 8325-4
[20] = system: Cronobacter sakazakii ATCC BAA-894
[21] = system: Cronobacter sakazakii DSM 4485
[22] = system: Salmonella enterica subsp. enterica serovar Typhimurium LT2
[23] = system: Cronobacter muytjensii ATCC 51329
[24] = system: Staphylococcus aureus RN4220
[25] = system: Staphylococcus aureus SA113
[26] = system: Klebsiella pneumoniae NCIMB 13218
[27] = system: Cronobacter sakazakii DPC 6440
[28] = system: Escherichia coli NCIMB 11843

Question: How did the MIC (Enterobacter cloacae) turn out when `CC(C)C[C@H](NC(=O)[C@H](CCCCN)NC(=O)[C@H](CCCCN)NC(=O)[C@H](Cc1ccccc1)NC(=O)[C@H](Cc1ccccc1)NC(=O)[C@@H](N)CCCCN)C(=O)N[C@@H](CCCCN)C(=O)N[C@@H](CCCCN)C(=O)N[C@@H](C)C(=O)N[C@H](C(=O)N[C@@H](CCCCN)C(=O)N[C@@H](CCCCN)C(=O)NCC(=O)N[C@@H](Cc1ccccc1)C(=O)N[C@@H](CCCCN)C(=O)N[C@@H](CCCCN)C(=O)N[C@@H](Cc1ccccc1)C(=O)N[C@@H](C)C(=O)N[C@@H](CCCCN)C(=O)N[C@H](C(=O)O)C(C)C)C(C)C` [KFFKKLKKAVKKGFKKFAKV] was run?
Answer: The MIC was ≥ 41.7 µM.

Question: What about the MIC [1] of the same molecule?
Answer: The MIC was 5.21 µM (≈ 12.5 µg/mL).

Question: What about the MIC [2] of the same molecule?
Answer: The MIC was 5.21 µM (≈ 12.5 µg/mL).

Question: What about the MIC (Staphylococcus aureus) of the same molecule?
Answer: The MIC was 5.21 µM (≈ 12.5 µg/mL).

Question: What about the MIC (Klebsiella aerogenes) of the same molecule?
Answer: Its MIC is ≥ 41.7 µM.

Question: And the MIC [3]?
Answer: Its MIC is 10.4 µM (≈ 25 µg/mL).

Question: What about the MIC (Escherichia coli ML-35p) of the same molecule?
Answer: The MIC was 2.61 µM (≈ 6.25 µg/mL).

Question: What about the MIC (Escherichia coli) of the same molecule?
Answer: The MIC was 5.21 µM (≈ 12.5 µg/mL).

Question: What about the MIC (Candida albicans) of the same molecule?
Answer: Its MIC is > 83.4 µM.

Question: And the MIC [4]?
Answer: The MIC was 2.61 µM (≈ 6.25 µg/mL).

Question: And the MIC [5]?
Answer: Its MIC is 1.3 µM (≈ 3.13 µg/mL).

Question: And the MIC [6]?
Answer: Its MIC is 2.61 µM (≈ 6.25 µg/mL).

Question: And the MIC [7]?
Answer: Its MIC is 1.3 µM (≈ 3.13 µg/mL).

Question: And the MIC [8]?
Answer: Its MIC is ≥ 41.7 µM.

Question: What about the MIC [9] of the same molecule?
Answer: Its MIC is ≥ 83.4 µM.

Question: And the MIC [10]?
Answer: The MIC was 5.21 µM (≈ 12.5 µg/mL).

Question: What about the MIC (Pseudomonas aeruginosa) of the same molecule?
Answer: The MIC was 5.21 µM (≈ 12.5 µg/mL).

Question: What about the MIC [11] of the same molecule?
Answer: Its MIC is 1.3 µM (≈ 3.13 µg/mL).

Question: `CC[C@H](C)[C@H](NC(=O)[C@H](CCCCN)NC(=O)[C@H](CCCCN)NC(=O)[C@H](Cc1ccccc1)NC(=O)[C@H](CC(C)C)NC(=O)[C@H](CCCCN)NC(=O)[C@H](CCCCN)NC(=O)[C@H](CC(C)C)NC(=O)[C@H](Cc1ccc(O)cc1)NC(=O)[C@H](CCCCN)NC(=O)[C@H](CC(C)C)NC(=O)[C@@H](NC(=O)[C@H](CCCCN)NC(=O)[C@H](CCCCN)NC(=O)[C@H](Cc1ccccc1)NC(=O)[C@H](CC(C)C)NC(=O)[C@H](CCCCN)NC(=O)[C@@H](N)CCCCN)[C@@H](C)CC)C(=O)N[C@@H](CC(C)C)C(=O)N[C@@H](CCCCN)C(=O)N[C@@H](Cc1ccc(O)cc1)C(=O)N[C@@H](CC(C)C)C(=O)O` [KKLFKKILKYLKKLFKKILKYL] was tested. Which MIC [12] did it give?
Answer: Its MIC is 1.77 µM (≈ 5 µg/mL).

Question: And the MIC [13]?
Answer: Its MIC is 6.12 µM (≈ 17.3 µg/mL).

Question: What about the MIC [14] of the same molecule?
Answer: Its MIC is 14.1 µM (≈ 40 µg/mL).

Question: How did the MIC (Staphylococcus aureus) turn out when `CC[C@H](C)[C@H](NC(=O)[C@H](CCCCN)NC(=O)[C@H](CCC(=O)O)NC(=O)[C@H](CCCCN)NC(=O)[C@H](C)NC(=O)[C@H](CCCCN)NC(=O)[C@H](CCCN=C(N)N)NC(=O)[C@H](Cc1ccccc1)NC(=O)[C@H](Cc1ccccc1)NC(=O)[C@H](CC(=O)O)NC(=O)CNC(=O)[C@H](CC(C)C)NC(=O)[C@@H](N)CC(C)C)C(=O)NCC(=O)N[C@@H](CCCCN)C(=O)N[C@@H](CCC(=O)O)C(=O)N[C@@H](Cc1ccccc1)C(=O)N[C@@H](CCCCN)C(=O)N[C@@H](CCCN=C(N)N)C(=O)N[C@H](C(=O)N[C@H](C(=O)N[C@@H](CCC(N)=O)C(=O)N[C@@H](CCCN=C(N)N)C(=O)O)C(C)C)[C@@H](C)CC` [LLGDFFRKAKEKIGKEFKRIVQR] was run?
Answer: The MIC was > 24 µM.

Question: What about the MIC (Escherichia coli K-12) of the same molecule?
Answer: The MIC was ≥ 80 µM.

Question: And the MIC (Escherichia coli DC2)?
Answer: Its MIC is 9 µM (≈ 25.3 µg/mL).

Question: And the MIC [15]?
Answer: Its MIC is ≥ 160 µM.

Question: How did the MIC [16] turn out when `CC[C@H](C)[C@H](NC(=O)[C@@H](N)C(C)C)C(=O)N[C@@H](CC(N)=O)C(=O)N[C@@H](CCC(=O)O)C(=O)N[C@@H](CC(N)=O)C(=O)N[C@@H](CC(C)C)C(=O)N[C@@H](CC(C)C)C(=O)N[C@@H](CCCN=C(N)N)C(=O)O` [VINENLLR] was run?
Answer: The MIC was ≥ 1250 µM.

Question: And the MIC [17]?
Answer: Its MIC is ≥ 1250 µM.

Question: And the MIC [18]?
Answer: Its MIC is ≥ 2500 µM.

Question: What about the MIC [19] of the same molecule?
Answer: The MIC was ≥ 625 µM.

Question: And the MIC [20]?
Answer: Its MIC is ≥ 1250 µM.

Question: And the MIC [21]?
Answer: Its MIC is ≥ 1250 µM.

Question: What about the MIC [22] of the same molecule?
Answer: The MIC was ≥ 2500 µM.

Question: What about the MIC [23] of the same molecule?
Answer: Its MIC is ≥ 1250 µM.

Question: And the MIC [24]?
Answer: The MIC was ≥ 1250 µM.

Question: And the MIC [25]?
Answer: The MIC was ≥ 1250 µM.

Question: And the MIC [26]?
Answer: The MIC was ≥ 2500 µM.

Question: What about the MIC [27] of the same molecule?
Answer: The MIC was ≥ 1250 µM.

Question: What about the MIC [28] of the same molecule?
Answer: Its MIC is ≥ 2500 µM.
